From ChEMBL document CHEMBL4152300, “Discovery of the selective and efficacious inhibitors of FLT3 mutations” (Eur J Med Chem, 2018)

Tests used:
[1] = target: Receptor-type tyrosine-protein kinase FLT3 (Homo sapiens, UniProt P36888, ITD); experiment: Inhibition of human FLT3 ITD-W51 mutant by Hotspot assay
MV4-11 [2] = experiment: Induction of apoptosis in human MV4-11 cells assessed as necrotic cells at 0.5 uM after 24 hrs by Annexin V-FITC/propidium iodide staining based flow cytometry (reference value: 0%); format: functional
[3] = Half life in human liver microsomes preincubated for 5 mins followed by NADPH addition by LC-MS/MS analysis; format: ADME, microsome
[4] = target: Vascular endothelial growth factor receptor 2 (Homo sapiens, UniProt P35968); experiment: Inhibition of human KDR at 0.123 uM by Hotspot assay relative to control
MOLM-13 = experiment: Growth inhibition of human MOLM13 cells harboring FLT3-ITD after 72 hrs by Cell-Titer Glo assay; format: functional, cell-based; conditions: MOLM-13, 72 h
MV4-11 [5] = experiment: Induction of apoptosis in human MV4-11 cells assessed as live cells at 0.2 uM after 24 hrs by Annexin V-FITC/propidium iodide staining based flow cytometry (reference value: 100%); format: functional
MV4-11 [6] = experiment: Growth inhibition of human MV4-11 cells harboring FLT3-ITD after 72 hrs by Cell-Titer Glo assay; format: functional, cell-based; conditions: MV4-11, 72 h
[7] = target: Receptor-type tyrosine-protein kinase FLT3 (Homo sapiens, UniProt P36888); experiment: Inhibition of human FLT3 Y591-V592 mutant by Hotspot assay
MV4-11 [8] = experiment: Induction of apoptosis in human MV4-11 cells assessed as live cells at 0.5 uM after 24 hrs by Annexin V-FITC/propidium iodide staining based flow cytometry (reference value: 100%); format: functional
HL-60 = experiment: Growth inhibition of human HL60 cells expressing low levels of FLT3 after 72 hrs by Cell-Titer Glo assay; format: functional, cell-based; conditions: HL-60, 72 h
[9] = target: Vascular endothelial growth factor receptor 1 (Homo sapiens, UniProt P17948); experiment: Inhibition of human FLT1 by Hotspot assay
MV4-11 [10] = experiment: Induction of apoptosis in human MV4-11 cells assessed as late apoptotic cells at 0.5 uM after 24 hrs by Annexin V-FITC/propidium iodide staining based flow cytometry (reference value: 0%); format: functional

Sequence of Vascular endothelial growth factor receptor 2 (P35968 whole entry): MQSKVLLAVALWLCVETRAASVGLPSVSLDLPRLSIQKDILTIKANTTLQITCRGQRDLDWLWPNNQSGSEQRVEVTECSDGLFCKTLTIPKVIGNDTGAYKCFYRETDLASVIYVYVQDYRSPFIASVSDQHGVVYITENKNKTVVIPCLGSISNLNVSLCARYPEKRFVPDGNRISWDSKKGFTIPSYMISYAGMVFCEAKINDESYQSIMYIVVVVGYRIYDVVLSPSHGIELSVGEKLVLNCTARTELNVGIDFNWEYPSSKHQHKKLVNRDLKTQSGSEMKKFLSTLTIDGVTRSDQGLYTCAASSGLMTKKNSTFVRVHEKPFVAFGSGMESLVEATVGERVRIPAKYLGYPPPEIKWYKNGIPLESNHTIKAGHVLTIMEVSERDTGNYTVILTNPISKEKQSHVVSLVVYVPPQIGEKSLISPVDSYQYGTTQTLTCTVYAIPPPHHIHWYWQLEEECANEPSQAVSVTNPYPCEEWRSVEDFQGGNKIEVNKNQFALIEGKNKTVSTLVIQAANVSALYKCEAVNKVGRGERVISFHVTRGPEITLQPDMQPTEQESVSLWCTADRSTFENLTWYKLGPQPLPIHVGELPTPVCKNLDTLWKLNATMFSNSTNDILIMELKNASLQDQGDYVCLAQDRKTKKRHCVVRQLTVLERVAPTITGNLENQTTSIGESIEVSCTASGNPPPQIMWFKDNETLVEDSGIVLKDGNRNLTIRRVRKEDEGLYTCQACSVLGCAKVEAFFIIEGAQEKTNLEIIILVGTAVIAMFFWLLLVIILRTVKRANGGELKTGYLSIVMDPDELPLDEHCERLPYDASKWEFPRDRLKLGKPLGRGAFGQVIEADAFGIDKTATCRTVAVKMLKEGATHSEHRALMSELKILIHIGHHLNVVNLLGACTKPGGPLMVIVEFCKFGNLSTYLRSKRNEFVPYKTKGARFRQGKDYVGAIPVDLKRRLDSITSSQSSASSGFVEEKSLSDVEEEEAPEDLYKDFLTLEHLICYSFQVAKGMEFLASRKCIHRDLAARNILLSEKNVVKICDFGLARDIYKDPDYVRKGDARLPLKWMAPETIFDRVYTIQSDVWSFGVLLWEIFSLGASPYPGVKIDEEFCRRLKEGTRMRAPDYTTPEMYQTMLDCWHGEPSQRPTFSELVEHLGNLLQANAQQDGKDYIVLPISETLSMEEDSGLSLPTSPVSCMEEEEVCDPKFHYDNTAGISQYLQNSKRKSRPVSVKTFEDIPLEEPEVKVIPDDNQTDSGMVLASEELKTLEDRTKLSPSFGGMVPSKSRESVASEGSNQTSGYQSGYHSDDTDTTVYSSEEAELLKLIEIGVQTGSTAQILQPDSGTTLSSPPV
Sequence of Receptor-type tyrosine-protein kinase FLT3 (Homo sapiens, UniProt P36888, ITD) (P36888 whole entry, looked up, change not shown): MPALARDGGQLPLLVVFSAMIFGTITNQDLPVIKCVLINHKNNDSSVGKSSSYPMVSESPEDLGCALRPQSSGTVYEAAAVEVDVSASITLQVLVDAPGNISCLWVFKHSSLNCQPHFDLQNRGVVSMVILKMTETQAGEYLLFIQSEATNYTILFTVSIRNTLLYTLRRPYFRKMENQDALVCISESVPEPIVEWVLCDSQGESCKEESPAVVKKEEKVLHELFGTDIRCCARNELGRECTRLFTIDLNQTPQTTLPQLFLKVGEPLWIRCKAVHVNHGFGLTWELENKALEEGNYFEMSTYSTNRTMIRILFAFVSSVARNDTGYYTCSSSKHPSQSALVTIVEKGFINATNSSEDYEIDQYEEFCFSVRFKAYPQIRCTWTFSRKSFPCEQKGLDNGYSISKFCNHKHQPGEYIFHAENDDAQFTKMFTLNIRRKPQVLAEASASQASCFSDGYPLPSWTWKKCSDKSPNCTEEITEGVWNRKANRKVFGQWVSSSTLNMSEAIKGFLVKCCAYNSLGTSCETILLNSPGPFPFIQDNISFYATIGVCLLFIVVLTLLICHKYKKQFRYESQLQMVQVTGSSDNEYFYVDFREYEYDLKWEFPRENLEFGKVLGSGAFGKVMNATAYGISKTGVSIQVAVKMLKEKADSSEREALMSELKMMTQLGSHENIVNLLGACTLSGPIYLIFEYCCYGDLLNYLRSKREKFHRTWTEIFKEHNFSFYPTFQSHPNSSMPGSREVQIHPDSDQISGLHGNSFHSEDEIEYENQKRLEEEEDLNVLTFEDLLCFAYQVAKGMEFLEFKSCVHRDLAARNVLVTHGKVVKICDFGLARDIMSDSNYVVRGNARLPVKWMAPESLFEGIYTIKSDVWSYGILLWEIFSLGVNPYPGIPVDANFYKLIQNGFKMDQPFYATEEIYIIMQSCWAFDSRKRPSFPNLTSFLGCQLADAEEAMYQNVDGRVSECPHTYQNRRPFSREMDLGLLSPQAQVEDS
Sequence of Receptor-type tyrosine-protein kinase FLT3 (Homo sapiens, UniProt P36888) (P36888 27-993 limits assumed): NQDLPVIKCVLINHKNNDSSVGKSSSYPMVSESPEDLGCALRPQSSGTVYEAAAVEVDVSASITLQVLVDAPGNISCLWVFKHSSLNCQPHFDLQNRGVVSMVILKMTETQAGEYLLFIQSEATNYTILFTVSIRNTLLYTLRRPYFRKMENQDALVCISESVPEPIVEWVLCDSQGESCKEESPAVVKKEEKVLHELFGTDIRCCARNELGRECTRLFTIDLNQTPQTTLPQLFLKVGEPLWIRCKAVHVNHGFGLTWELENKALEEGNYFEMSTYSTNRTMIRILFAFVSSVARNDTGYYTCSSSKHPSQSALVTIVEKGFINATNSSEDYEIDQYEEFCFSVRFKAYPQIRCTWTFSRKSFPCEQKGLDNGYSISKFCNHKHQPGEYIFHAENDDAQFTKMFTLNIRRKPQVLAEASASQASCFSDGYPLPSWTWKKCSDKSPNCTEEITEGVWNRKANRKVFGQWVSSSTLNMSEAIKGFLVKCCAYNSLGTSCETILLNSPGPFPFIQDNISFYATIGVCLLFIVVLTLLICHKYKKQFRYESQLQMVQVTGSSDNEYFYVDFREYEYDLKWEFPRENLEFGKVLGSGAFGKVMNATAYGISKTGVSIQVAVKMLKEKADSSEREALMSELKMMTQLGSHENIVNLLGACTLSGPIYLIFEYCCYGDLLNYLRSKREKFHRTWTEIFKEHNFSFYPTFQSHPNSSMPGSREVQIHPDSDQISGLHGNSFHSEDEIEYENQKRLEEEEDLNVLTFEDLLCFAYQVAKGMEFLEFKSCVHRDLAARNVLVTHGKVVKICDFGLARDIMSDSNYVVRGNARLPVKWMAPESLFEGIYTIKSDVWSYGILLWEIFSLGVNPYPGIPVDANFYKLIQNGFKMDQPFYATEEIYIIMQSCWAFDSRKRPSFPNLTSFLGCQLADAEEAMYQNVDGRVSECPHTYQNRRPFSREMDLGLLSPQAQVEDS
Sequence of Vascular endothelial growth factor receptor 1 (P17948 whole entry): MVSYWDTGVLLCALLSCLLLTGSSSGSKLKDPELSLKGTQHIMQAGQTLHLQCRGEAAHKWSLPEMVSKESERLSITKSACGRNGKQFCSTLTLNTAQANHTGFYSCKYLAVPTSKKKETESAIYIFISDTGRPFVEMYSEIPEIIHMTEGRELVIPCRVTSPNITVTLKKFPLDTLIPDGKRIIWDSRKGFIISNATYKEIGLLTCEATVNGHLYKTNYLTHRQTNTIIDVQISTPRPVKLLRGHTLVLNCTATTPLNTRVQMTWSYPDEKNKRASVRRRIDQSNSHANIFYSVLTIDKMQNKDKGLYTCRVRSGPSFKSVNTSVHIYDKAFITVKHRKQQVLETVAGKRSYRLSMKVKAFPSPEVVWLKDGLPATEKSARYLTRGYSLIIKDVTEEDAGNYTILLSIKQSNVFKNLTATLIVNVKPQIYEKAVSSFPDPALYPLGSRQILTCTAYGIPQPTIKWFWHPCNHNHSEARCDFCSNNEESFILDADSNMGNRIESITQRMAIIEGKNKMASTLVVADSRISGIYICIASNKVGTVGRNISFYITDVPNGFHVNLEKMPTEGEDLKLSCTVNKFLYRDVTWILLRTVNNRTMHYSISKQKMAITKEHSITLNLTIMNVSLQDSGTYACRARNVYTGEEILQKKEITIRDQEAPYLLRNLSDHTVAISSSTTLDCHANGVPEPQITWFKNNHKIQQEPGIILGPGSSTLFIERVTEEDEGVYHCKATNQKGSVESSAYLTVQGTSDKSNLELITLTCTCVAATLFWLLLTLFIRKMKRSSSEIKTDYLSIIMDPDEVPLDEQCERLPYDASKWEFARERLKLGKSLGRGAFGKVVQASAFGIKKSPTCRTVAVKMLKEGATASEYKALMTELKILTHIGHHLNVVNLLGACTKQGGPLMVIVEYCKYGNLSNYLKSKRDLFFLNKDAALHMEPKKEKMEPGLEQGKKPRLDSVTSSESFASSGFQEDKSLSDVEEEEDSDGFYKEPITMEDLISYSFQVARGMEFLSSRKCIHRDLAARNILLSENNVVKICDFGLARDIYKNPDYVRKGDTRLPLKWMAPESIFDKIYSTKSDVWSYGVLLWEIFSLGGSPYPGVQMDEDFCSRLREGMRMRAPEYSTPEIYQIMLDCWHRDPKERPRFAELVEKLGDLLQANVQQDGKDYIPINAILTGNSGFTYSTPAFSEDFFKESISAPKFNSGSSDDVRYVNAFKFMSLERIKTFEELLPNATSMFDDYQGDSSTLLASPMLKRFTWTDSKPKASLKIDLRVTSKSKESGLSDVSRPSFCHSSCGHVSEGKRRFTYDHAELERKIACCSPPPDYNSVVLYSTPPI

SMILES: Cc1nc2c(c(Nc3c[nH]nc3C(=O)Nc3ccc(N4CCNCC4)cc3)n1)CCC2
- IC50 [1]: 12.8 nM
- Activity (MV4-11 [2]): 0.83%
- half-life [3]: 2.45 h
- inhibition [4]: > 50%
- IC50 (MOLM-13): 37 nM
- Activity (MV4-11 [5]): 62.2%
- IC50 (MV4-11 [6]): 16 nM
- IC50 [7]: 15.3 nM
- Activity (MV4-11 [8]): 29%
- IC50 (HL-60): 26700 nM
- IC50 [9]: 220 nM
- Activity (MV4-11 [10]): 9.77%
